Measurements: patent publication US4623662A, “Antiatherosclerotic ureas and thioureas” (American Cyanamid Company, priority 1985, dated 1986)
Like-named read-outs stand apart in the source and are kept apart here.

System: cholesterol absorption
Test: Inhibition of cholesterol absorption in rats fed 1% cholesterol:0.5% cholic acid diet
Type: in vivo, male Sprague-Dawley rats
Settings: rat, 2 weeks; for response vs control in vivo at 0.001 % / response vs control in vivo at 0.01 % / response vs control in vivo at 0.003 % / response vs control in vivo at 0.03 %: po, 336 h; for response vs control in vivo at 0.001 %: dose .001% of the diet; for response vs control in vivo at 0.01 %: dose .01% of the diet; for response vs control in vivo at 0.03 %: dose .03% of the diet
Description: Inhibition of cholesterol absorption was determined by feeding male Sprague-Dawley rats, weighing 150-170 g, a 1% cholesterol:0.5% cholic acid diet for 2 weeks. The diet also contained compounds being tested at a dose of 0.001, 0.003, 0.01, or 0.03% of the diet. Control rats were fed the same diet without any compound. At the end of the test, the rats were sacrificed by decapitation. Blood was collected, centrifuged at […] for 10 minutes at 4° C.; and the serum was then analyzed for cholesterol and triglycerides enzymatically by the method of Trinder, P., Analyst, 77, 321 (1952) on a Centrifichem 400 analyzer. Livers were removed, a 0.4 g sample was taken from the center of the large lobe, and the sample was subjected to saponification using 25% saturated potassium hydroxide in ethanol. The resulting neutral sterols were extracted with petroleum ether and the extract analyzed for cholesterol. The effectiveness of the compound in inhibiting cholesterol absorption was measured by the lowering of either serum cholesterol or liver cholesterol relative the values for control rats.
Compounds which produced statistically significant inhibition of cholesterol absorption are considered to be active. Liver sterol (LS) and serum sterol (SS) values are expressed as a percentage of control values.

[1] = read-out: LS (liver sterol), percentage of control values
[2] = read-out: SS (serum sterol), percentage of control values
[3] = dose .003% of the diet, read-out: LS (liver sterol), percentage of control values
[4] = dose .003% of the diet, read-out: SS (serum sterol), percentage of control values

Compound	response vs control in vivo at 0.001 % [1] [%]	response vs control in vivo at 0.001 % [2] [%]	response vs control in vivo at 0.003 % [3] [%]	response vs control in vivo at 0.003 % [4] [%]	also measured
CCCCCCCN(Cc1ccc(CC(C)CCC)cc1)C(=O)Nc1c(C)cc(Cl)cc1C (stereo not drawn) [1-(n-Heptyl)-1-[4-(2-methylpentyl)benzyl]-3-(4-chloro-2,6-dimethylphenyl)urea]	56	61			
CCCCCCCN(Cc1ccc(CC(C)CC)cc1)C(=O)Nc1ccc(F)cc1F (stereo not drawn) [1-(n-Heptyl)-1-[4-(2-methylbutyl)benzyl]-3-(2,4-difluorophenyl)urea]					response vs control in vivo at 0.01 % [1]: 42%; response vs control in vivo at 0.01 % [2]: 36%
CCCCCCCN(Cc1ccc(CCS(=O)(=O)C(C)C)cc1)C(=O)Nc1c(C)cc(Cl)cc1C [1-(n-Heptyl)-1-[4-(2-isopropylsulfonylethyl)benzyl]-3-(4-chloro-2,6-dimethylphenyl)urea]			54	57	
CCCCCCCN(Cc1ccc(CC(C)(C)C)cc1)C(=O)Nc1ccc(F)cc1F [1-(n-Heptyl)-1-[4-(2,2-dimethylpropyl)phenylmethyl]-3-(2,4-difluorophenyl)urea]					response vs control in vivo at 0.01 % [1]: 51%; response vs control in vivo at 0.01 % [2]: 22%
CCCCCCCN(Cc1ccc(CC(CC)CC)cc1)C(=O)Nc1c(C)cc(Cl)cc1C [1-(n-Heptyl)-1-[4-(2-ethylbutyl)benzyl]-3-(4-chloro-2,6-dimethylphenyl)urea]	94	62			
CCCCCCCN(Cc1ccc(CCSC(C)C)cc1)C(=O)Nc1c(C)cc(Cl)cc1C [1-(n-Heptyl)-1-[4-(2-isopropylthioethyl)benzyl]-3-(4-chloro-2,6-dimethylphenyl)urea]			51	49	
CCCCCCCN(Cc1ccc(CC(C)(C)C)cc1)C(=O)Nc1c(C)cc(Cl)cc1C [1-(n-Heptyl)-1-[4-(2,2-dimethylpropyl)phenylmethyl]-3-(4-chloro-2,6-dimethylphenyl)urea]			54	41	
CCCCCCCN(Cc1ccc(CC2CCCC2)cc1)C(=O)Nc1c(F)cc(F)cc1F [1-(n-Heptyl)-1-[4-(cyclopentylmethyl)benzyl]-3-(2,4,6-trifluorophenyl)urea]			50	62	
CC(C)CCCCN(Cc1ccc(CCC(C)C)cc1)C(=O)Nc1ccc(F)cc1F [1-(Isoheptyl)-1-[4-(isopentyl)benzyl]-3-(2,4-difluorophenyl)urea]			45	24	
CCCCCCCN(Cc1ccc(CC[S+]([O-])C(C)C)cc1)C(=O)Nc1c(C)cc(Cl)cc1C (stereo not drawn) [1-(n-Heptyl)-1-[4-(2-isopropylsulfinylethyl)benzyl]-3-(4-chloro-2,6-dimethylphenyl)urea]			54	45	
CCCCCCCN(Cc1ccc(CC(CC)CCCC)cc1)C(=O)Nc1c(F)cc(F)cc1F (stereo not drawn) [1-(n-Heptyl)-1-[4-(2-ethylhexyl)benzyl]-3-(2,4,6-trifluorophenyl)urea]	87	82			
CCCCCCCN(Cc1ccc(CCCC(C)C)cc1)C(=O)Nc1c(F)cc(F)cc1F [1-(n-Heptyl)-1-[4-(isohexyl)benzyl]-3-(2,4,6-trifluorophenyl)urea]	78	77			
CCCCCCCN(Cc1ccc(CCC(C)CC)cc1)C(=O)Nc1c(C)cc(Cl)cc1C (stereo not drawn) [1-(n-Heptyl)-1-[4-(3-methylpentyl)benzyl]-3-(4-chloro-2,6-dimethylphenyl)urea]			45	38	
1-(n-Heptyl)-1-[4-(1,5-dimethylhexyl)benzyl]-3-(2,4,6-trifluoromethylphenyl)urea					LS (liver sterol), percentage of control values (dose .003% of the diet): 65 percentage of control values; SS (serum sterol), percentage of control values (dose .003% of the diet): 57 percentage of control values
CCCCCCCN(Cc1ccc(OCCC(C)C)cc1)C(=O)Nc1ccc(F)cc1F [1-(n-Heptyl)-1-[4-(isopentyloxy)benzyl]-3-(2,4-difluorophenyl)urea]	61	69			
CCCCCCCN(Cc1ccc(CC(CC)CCCC)cc1)C(=O)Nc1ccc(F)cc1F (stereo not drawn) [1-(n-Heptyl)-1-[4-(2-ethylhexyl)benzyl]-3-(2,4-difluorophenyl)urea]			56	63	
CCCCCCCN(Cc1ccc(CC(C)CCC)cc1)C(=O)Nc1c(F)cc(F)cc1F (stereo not drawn) [1-(n-Heptyl)-1-[4-(2-methylpentyl)benzyl]-3-(2,4,6-trifluorophenyl)urea]	75	93			

Compound	response vs control in vivo at 0.001 % [1] [%]	response vs control in vivo at 0.001 % [2] [%]	response vs control in vivo at 0.003 % [3] [%]	response vs control in vivo at 0.003 % [4] [%]	also measured
CCCCCCCN(Cc1ccc(CCOC(C)=O)cc1)C(=O)Nc1ccc(F)cc1F [1-(n-Heptyl)-1-[4-(2-acetoxyethyl)benzyl]-3-(2,4-difluorophenyl)urea]			60	55	
CCCCCCCN(Cc1ccc(CC(C)C(C)CC)cc1)C(=O)Nc1ccc(F)cc1F (stereo not drawn) [1-(n-Heptyl)-1-[4-(2,3-dimethylpentyl)benzyl]-3-(2,4-difluorophenyl)urea]					response vs control in vivo at 0.01 % [1]: 63%; response vs control in vivo at 0.01 % [2]: 48%
CCCCCCCN(Cc1ccc(CCO)cc1)C(=O)Nc1ccc(F)cc1F [1-(n-Heptyl)-1-[4-(2-hydroxyethyl)benzyl]-3-(2,4-difluorophenyl)urea]			59	52	
CCCCCCCN(Cc1ccc(CCCCSC(C)C)cc1)C(=O)Nc1c(C)cc(Cl)cc1C [1-(n-Heptyl)-1-[4-(4-isopropylthiobutyl)benzyl]-3-(4-chloro-2,6-dimethylphenyl)urea]					response vs control in vivo at 0.01 % [1]: 45%; response vs control in vivo at 0.01 % [2]: 49%
CCCCCCCN(Cc1ccc(CCCCSCC)cc1)C(=O)Nc1c(C)cc(Cl)cc1C [1-(n-Heptyl)-1-[4-(4-ethylthiobutyl)benzyl]-3-(4-chloro-2,6-dimethylphenyl)urea]			63	57	
CCCCCCCN(Cc1ccc(C(C)CCCC(C)C)cc1)C(=O)Nc1c(C)cc(Cl)cc1C (stereo not drawn) [1-(n-Heptyl)-1-[4-(1,5-dimethylhexyl)benzyl]-3-(4-chloro-2,6-dimethylphenyl)urea]	100	94			
CCCCCCCN(Cc1ccc(CC(C)CCC)cc1)C(=O)Nc1ccc(F)cc1F (stereo not drawn) [1-(n-Heptyl)-1-[4-(2-methylpentyl)benzyl]-3-(2,4-difluorophenyl)urea]			72	53	
CCCCCCCN(Cc1ccc(CC(C)(C)C)cc1)C(=O)Nc1c(F)cc(F)cc1F [1-(n-Heptyl)-1-[4-(2,2-dimethylpropyl)phenylmethyl]-3-(2,4,6-trifluorophenyl)urea]			55	38	
CCCCCCCN(Cc1ccc(CC(CC)CCCC)cc1)C(=O)Nc1c(C)cc(Cl)cc1C (stereo not drawn) [1-(n-Heptyl)-1-[4-(2-ethylhexyl)benzyl]-3-(4-chloro-2,6-dimethylphenyl)urea]	87	83			
CCCCCCOc1ccc(CN(CCCC)C(=O)Nc2c(C)cc(C)cc2C)cc1 [1-(n-Butyl)-1-(4-hexyloxybenzyl)-3-(2,4-trimethylphenyl)urea]					response vs control in vivo at 0.03 % [1]: 15%; response vs control in vivo at 0.03 % [2]: 54%
CCCCCCCN(Cc1ccc(CCC(C)CC)cc1)C(=O)Nc1ccc(F)cc1F (stereo not drawn) [1-(n-Heptyl)-1-[4-(3-methylpentyl)benzyl]-3-(2,4-difluorophenyl)urea]	89	72			
CCCCCCCN(Cc1ccc(CCCC)cc1)C(=O)Nc1ccc(C(F)(F)F)cc1 [1-(n-Heptyl)-1-[4-(n-butyl)benzyl]-3-(4-trifluoromethylphenyl)urea]					response vs control in vivo at 0.03 % [1]: 88%; response vs control in vivo at 0.03 % [2]: 79%
CCCCCCCN(Cc1ccc(CC(C)CC)cc1)C(=O)Nc1c(F)cc(F)cc1F (stereo not drawn) [1-(n-Heptyl)-1-[4-(2-methylbutyl)benzyl]-3-(2,4,6-trifluorophenyl)urea]	64	76			
CCCCCCCN(Cc1ccc(C2CCCC2)cc1)C(=O)Nc1ccc(F)cc1F [1-(n-Heptyl)-1-[4-(cyclopentyl)benzyl]-3-(2,4-difluorophenyl)urea]			82	80	
CC(C)CCCCN(Cc1ccc(CCC(C)C)cc1)C(=O)Nc1c(F)cc(F)cc1F [1-(Isoheptyl)-1-[4-(isopentyl)benzyl]-3-(2,4,6-trifluorophenyl)urea]	45	33			
CCCCCCCN(Cc1ccc(C2CCCC2)cc1)C(=O)Nc1c(F)cc(F)cc1F [1-(n-Heptyl)-1-[4-(cyclopentyl)benzyl]-3-(2,4,6-trifluorophenyl)urea]	58	69			
